Bridge positions count the residues as written; N and C are the ends. I, II: the chains in the order shown.
Test system: EL4-A2402/K^b cells
Test: Induction of CTLs with peptide dimer: HLA-A24 transgenic mice immunised, splenocytes tested by 51Cr release assay
Type: in vivo, HLA-A24 transgenic mouse
Details: for CTL-inducing activity (induction of peptide-specific CTLs): HLA-A24 transgenic mouse, s.c. injection in the base of the tail, FIG. 1
Procedure: The CTL-inducing activity of the peptide dimer prepared in Example 1 was evaluated using HLA-A24 transgenic mice (Int. J. Cancer: 100, 565, 2002). The peptide dimer was dissolved in dimethyl sulfoxide (DMSO) to obtain a 40 mg/ml peptide solution. The peptide solution (35 μl) was then added to 10 mM phosphate buffer (pH 7.5) (581 μl) to obtain a peptide suspension. The resultant peptide suspension (550 μl) and Montanide ISA51 (Seppic) (700 μl) were mixed using a connected glass syringe to prepare an emulsion as an administration solution.
The administration solution (200 μl) was injected into an HLA-A24 transgenic mouse subcutaneously in the base of the tail. Three mice were used. Seven days after the injection, the spleen was removed and splenocytes were prepared. A portion of the splenocytes was pulsed with the peptide dimer (100 μg/ml) for 1 hour. Splenocytes not pulsed with the peptide were seeded into a 24-well plate at 7×10^6 cells/well and thereto were added the above-mentioned splenocytes pulsed with the peptide (1×10^6 cells/well), and the plate was incubated. The incubation was conducted in RPMI1640 medium supplemented with 10% FCS, 10 mM HEPES, 20 mM L-glutamine, 1 mM sodium pyruvate, 1 mM MEM nonessential amino acids, 1% MEM vitamin and 55 μM 2-mercaptoethanol for 5 days.
The cultured splenocytes were examined for the cytotoxic activity specific for the peptide used in the administration by ^51Cr release assay (J. Immunol.: 159, 4753, 1997). EL4-A2402/K^b cells obtained by transforming EL-4 cells (ATCC No. TIB-39) in such a manner that a chimera MHC class I molecule of HLA-A24 and H2K^b (Int. J. Cancer: 100, 565, […]) are expressed stably were used as the target cells. The target cells were labeled with ^51Cr (3.7 MBq/10^6 cells) and pulsed with the peptide at 100 μg/ml for an hour. For control, target cells not pulsed with the peptide were labeled with ^51Cr for 2 hours. Those labeled target cells and the previously prepared splenocytes were mixed at a ratio of 1:120, cultured for 4 hours and the CTL activity was evaluated on the basis of the percent of damaged target cells.

With “Example 1: Dimer of two H-Cys-Tyr-Thr-Trp-Asn-Gln-Met-Asn-Leu-OH (SEQ ID NO:44) monomers, made by air oxidation, bound through a disulfide bond (chain 1 H-CYTWNQMNL-OH; chain 2 H-CYTWNQMNL-OH; disulfide I:1-II:1; SMILES CSCC[C@H](NC(=O)[C@H](CCC(N)=O)NC(=O)[C@H](CC(N)=O)NC(=O)[C@H](Cc1c[nH]c2ccccc12)NC(=O)[C@@H](NC(=O)[C@H](Cc1ccc(O)cc1)NC(=O)[C@@H](N)CSSC[C@H](N)C(=O)N[C@@H](Cc1ccc(O)cc1)C(=O)N[C@H](C(=O)N[C@@H](Cc1c[nH]c2ccccc12)C(=O)N[C@@H](CC(N)=O)C(=O)N[C@@H](CCC(N)=O)C(=O)N[C@@H](CCSC)C(=O)N[C@@H](CC(N)=O)C(=O)N[C@@H](CC(C)C)C(=O)O)[C@@H](C)O)[C@@H](C)O)C(=O)N[C@@H](CC(N)=O)C(=O)N[C@@H](CC(C)C)C(=O)O)” the “CTL-inducing activity (induction of peptide-specific CTLs)” value was “CTLs specific for the peptide were induced”, the “CTL-inducing activity (induction of peptide-specific CTLs)” value (listed as peptide dimer (SEQ ID NO: 44)) was “induces CTLs” and the “cytotoxic activity of splenocytes on target cells not pulsed with the peptide (control)” value (same splenocytes, target cells not pulsed with the peptide, ratio 1:120, 4 hours) was “only weak cytotoxicity”. For the same substance, the “cytotoxic activity of splenocytes on target cells pulsed with the peptide (percent of damaged target cells)” value (splenocytes from mice injected s.c. with emulsion (Montanide ISA51), 7 days, target cells pulsed with peptide 100 μg/ml, target:splenocyte ratio 1:120, 4 hours) was “injured strongly”.

From US8242084B2, “Dimerized peptide” (Chugai Seiyaku Kabushiki Kaisha, priority 2003, dated 2012)
